Measured values from the supplement of paper PMC10307832.

Key:
Test in all cases: relative viability (nuclei count vs DMSO), 5 days (fraction); higher = more cells survive
MK-8033 + Navitoclax = compound: Cn1cc(-c2cnc3ccc4ccc(CS(=O)(=O)NCc5ccccn5)cc4c(=O)c3c2)cn1 [MK-8033] + CC1(C)CCC(c2ccc(Cl)cc2)=C(CN2CCN(c3ccc(C(=O)NS(=O)(=O)c4ccc(N[C@H](CCN5CCOCC5)CSc5ccccc5)c(S(=O)(=O)C(F)(F)F)c4)cc3)CC2)C1 [Navitoclax] (partner 0.5 µM)
Procedure, shortened: (§1)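 Each reported value is a median over duplicate plates. It expresses relative viability: treated-well nuclei count divided by vehicle-well nuclei count. Lung cancer cell lines in 1536-well plates were dosed by pin tool a day after seeding, alone with one drug or with a fixed anchor-drug dose plus five library-drug doses (not always all listed) in √10 steps, and nuclei were counted after 5 days.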

MK-8033 + Pemetrexed = compound: Cn1cc(-c2cnc3ccc4ccc(CS(=O)(=O)NCc5ccccn5)cc4c(=O)c3c2)cn1 [MK-8033] + Nc1nc2[nH]cc(CCc3ccc(C(=O)N[C@@H](CCC(=O)O)C(=O)O)cc3)c2c(=O)[nH]1 [Pemetrexed] (partner 0.2 µM)
Procedure, shortened: as §1

MK-8033 + Foretinib = compound: Cn1cc(-c2cnc3ccc4ccc(CS(=O)(=O)NCc5ccccn5)cc4c(=O)c3c2)cn1 [MK-8033] + COc1cc2c(Oc3ccc(NC(=O)C4(C(=O)Nc5ccc(F)cc5)CC4)cc3F)ccnc2cc1OCCCN1CCOCC1 [Foretinib] (partner 0.25 µM)
Procedure, shortened: as §1

MK-8033 + Dasatinib = compound: Cn1cc(-c2cnc3ccc4ccc(CS(=O)(=O)NCc5ccccn5)cc4c(=O)c3c2)cn1 [MK-8033] + Cc1nc(Nc2ncc(C(=O)Nc3c(C)cccc3Cl)s2)cc(N2CCN(CCO)CC2)n1 [Dasatinib] (partner 0.075 µM)
Procedure, shortened: as §1

Row | Cell Line | relative viability (MK-8033 + Navitoclax; first compound 0.02 µM) | relative viability (MK-8033 + Navitoclax; first compound 0.06325 µM) | relative viability (MK-8033 + Navitoclax; first compound 0.2 µM) | relative viability (MK-8033 + Navitoclax; first compound 0.6325 µM) | relative viability (MK-8033 + Navitoclax; first compound 2 µM) | relative viability (MK-8033 + Pemetrexed; first compound 0.02 µM) | relative viability (MK-8033 + Pemetrexed; first compound 0.06325 µM) | relative viability (MK-8033 + Pemetrexed; first compound 0.2 µM) | relative viability (MK-8033 + Pemetrexed; first compound 0.6325 µM) | relative viability (MK-8033 + Pemetrexed; first compound 2 µM) | relative viability (MK-8033 + Foretinib; first compound 0.02 µM) | relative viability (MK-8033 + Foretinib; first compound 0.06325 µM) | relative viability (MK-8033 + Foretinib; first compound 0.2 µM) | relative viability (MK-8033 + Foretinib; first compound 0.6325 µM) | relative viability (MK-8033 + Foretinib; first compound 2 µM) | relative viability (MK-8033 + Dasatinib; first compound 0.02 µM) | relative viability (MK-8033 + Dasatinib; first compound 0.06325 µM) | relative viability (MK-8033 + Dasatinib; first compound 0.2 µM) | relative viability (MK-8033 + Dasatinib; first compound 0.6325 µM) | relative viability (MK-8033 + Dasatinib; first compound 2 µM)
1 | NCI-H1666 | 0.959 | 0.852 | 0.951 | 1.1 | 0.924 | 0.784 | 0.775 | 0.915 | 0.788 | 0.772 | 1.02 | 0.842 | 0.911 | 0.953 | 1.01 | 0.907 | 0.769 | 0.73 | 0.872 | 0.827
2 | NCI-H1734 | 0.811 | 0.818 | 0.763 | 0.878 | 0.837 | 0.423 | 0.403 | 0.393 | 0.398 | 0.431 | 0.829 | 0.665 | 0.78 | 0.861 | 0.856 | 0.441 | 0.469 | 0.429 | 0.411 | 0.395
3 | NCI-H1755 | 0.829 | 0.988 | 0.983 | 1.01 | 0.966 | 0.481 | 0.394 | 0.383 | 0.336 | 0.375 | 0.961 | 0.884 | 0.865 | 0.889 | 0.949 | 0.41 | 0.382 | 0.415 | 0.421 | 0.443
4 | NCI-H1793 | 0.454 | – | 0.291 | 0.38 | 0.508 | 0.682 | – | 0.725 | 0.739 | 0.729 | 0.696 | 0.515 | 0.615 | 0.574 | 0.784 | 0.425 | 0.388 | 0.394 | 0.365 | 0.338
5 | NCI-H1915 | 0.812 | 0.699 | 0.801 | 0.811 | 0.783 | 0.51 | 0.491 | 0.497 | 0.472 | 0.428 | 1.08 | 0.997 | 1.05 | 1.07 | 1.11 | 0.298 | 0.273 | 0.309 | 0.309 | 0.303
6 | NCI-H1944 | 1.15 | – | 0.991 | 1.02 | 1.03 | 0.703 | 0.478 | 0.676 | 0.583 | 0.613 | 0.88 | 0.773 | 0.852 | 0.962 | 0.927 | 0.205 | 0.201 | 0.221 | 0.202 | 0.234
7 | NCI-H1975 | 1.12 | 0.92 | 1.08 | 1.08 | 1.07 | 0.263 | 0.259 | 0.276 | 0.281 | 0.288 | 0.944 | 0.944 | 0.875 | – | 1 | 0.329 | 0.344 | 0.357 | – | 0.343
8 | NCI-H1993 | 0.866 | 0.781 | 0.859 | 0.83 | 0.708 | 0.537 | 0.58 | 0.498 | 0.575 | 0.46 | 0.696 | 0.774 | 0.789 | 0.73 | 0.949 | 0.482 | 0.493 | 0.533 | 0.468 | 0.502
9 | NCI-H2009 | 1.16 | 1.12 | 1.08 | 1.15 | 1.14 | 1.01 | 1.01 | 0.923 | 1.08 | 0.997 | 1.25 | 1.25 | 1.19 | 1.24 | 1.14 | 0.299 | 0.329 | 0.308 | 0.232 | 0.279
10 | NCI-H2023 | 1.08 | 0.881 | 0.933 | 0.943 | 0.847 | 0.21 | 0.211 | 0.216 | 0.22 | 0.222 | 0.822 | 0.786 | 0.701 | 0.948 | 0.771 | 0.603 | 0.437 | 0.421 | 0.342 | 0.288
11 | NCI-H2085 | 1.03 | 1.03 | 1.1 | 1.13 | 1.14 | 0.722 | 0.767 | 0.862 | 0.874 | 0.875 | 0.914 | 0.75 | 1.23 | 0.919 | 0.951 | 0.209 | 0.246 | 0.247 | 0.265 | 0.225
12 | NCI-H2087 | 1.1 | 0.877 | 0.916 | 1 | 1.05 | 0.622 | 0.714 | 0.629 | 0.578 | 0.674 | 1.03 | 1.11 | 0.889 | 1.16 | 0.957 | 0.95 | 0.852 | 0.754 | 0.763 | 0.772
13 | NCI-H2126 | 0.836 | 0.838 | 0.861 | 0.832 | 0.827 | 0.674 | 0.661 | 0.613 | 0.689 | 0.649 | 1.13 | 0.998 | 1.16 | 1.18 | 1.15 | 0.601 | 0.556 | 0.597 | 0.601 | 0.573
14 | NCI-H2170 | 0.559 | 0.55 | 0.612 | 0.586 | 0.597 | 0.275 | 0.266 | 0.299 | 0.257 | 0.26 | 1.03 | 0.966 | 0.959 | 1.06 | 1.09 | 0.681 | 0.553 | 0.604 | 0.581 | 0.481
15 | NCI-H2228 | 1.37 | 0.876 | 0.754 | 0.54 | 0.839 | 0.274 | 0.343 | 0.365 | 0.308 | 0.325 | 0.96 | 0.806 | 0.673 | 0.721 | 0.749 | 0.586 | 0.517 | 0.471 | 0.446 | 0.482
16 | NCI-H2347 | 0.844 | 0.741 | 0.779 | 0.827 | 0.737 | 0.462 | 0.423 | 0.434 | 0.356 | 0.415 | 1.21 | 1.01 | 0.805 | 0.839 | 0.939 | 0.288 | 0.317 | 0.314 | 0.362 | 0.354
